# Source: patent US5324725A, “7-fused 2-(piperazinoalkyl) indole derivatives, intermediates and compositions thereof” (Kali-Chemie Pharma GmbH, priority 1991, dated 1994)
# Tests used:
# [1] = tested on: Histamine-induced anaphylactoid reactions; test: Inhibition of anaphylactoid cutaneous reaction induced by histamine; type: in vivo, rat (Sprague-Dawley); conditions: Rattus norvegicus, 1 h; rats, 2 × 10^-5 mol/kg p.o., one hour before challenge; histamine intradermal
# Procedure, shortened: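 Animals received 50 μl intradermal histamine (0.8 mg/ml in saline) in the flank opposite the antiserum site, just before i.v. ovalbumin plus blue dye. Test substance at 2×10^-5 mol/kg was given orally 1 h before challenge in water with 1% DMF and 1% Tween 20. Blue-dye exudation was scored visually at 30 min, giving % inhibition versus solvent controls.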
# [2] = tested on: P.A.F.-induced aggregation of platelets from rabbit blood; test: Anti-P.A.F. effect in vitro: inhibition of P.A.F.-induced platelet aggregation; type: cell-based, rabbit (New Zealand hybrids); conditions: Oryctolagus cuniculus, Platelet, test substance concentration 10^-5 mol/l
# Procedure, shortened: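 Washed, aspirin-treated rabbit platelets (4×10^9/ml stock suspension) in modified Tyrode buffer, pH 7.4, preincubated 90 s with test compound at 10^-5 mol/l final, then challenged with P.A.F. Aggregation followed 4–5 min in an aggregometer. Inhibition expressed in % relative to P.A.F.-only (100%) and platelet-only (0%) controls.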
SMILES,inhibition in vivo at 20 µmol/kg [1],inhibition at 10 µM [2]
Cc1ccnc(N2CCN(CCc3c(C)n4c5c(ccc(C(O)C(C)C)c35)SCC4)CC2)c1 (centres unmarked) [Example 90],77%,64%
Cc1ccnc(N2CCN(CCc3c(C)n4c5c(cccc35)C(C)CC4)CC2)c1 (centres unmarked) [Example 57],95%,86%
Cc1ccnc(N2CCN(CCc3c(C)n4c5c(cc(C)cc35)CCC4)CC2)c1 [Example 54],73%,75%
"CCc1c(C(O)CN2CCN(c3cc(C)ccn3)CC2)c2cccc3c2n1CCC3 (centres unmarked) [Example 14, 2-Ethyl-5,6-dihydro-1-{2-[4-(4-methylpyridin-2-yl)piperazin-1-yl]-1-hydroxyethyl}-4H-pyrrolo[3,2,1-ij]quinoline]",25%,86%
"Cc1ccnc(N2CCN(CCc3cn4c5c(cccc35)CCC4)CC2)c1 [Example 13, 5,6-Dihydro-1-{2-[4-(4-methylpyridin-2-yl)piperazin-1-yl]ethyl}-4H-pyrrolo[3,2,1-ij]quinoline]",68%,93%
"Cc1ccnc(N2CCN(CCc3c(C)n4c5c(cccc35)CCC4c3ccccc3)CC2)c1 (centres unmarked) [Example 3, 5,6-dihydro-2-methyl-4-phenyl-1-{2-[4-(4-methylpyridine-2-yl)piperazin-1-yl]-ethyl}-4H-pyrrolo[3,2,1-ij]quinoline]",93%,100%
"CC(=O)Oc1cc2c3c(c1)c(CCN1CCN(c4cc(C)ccn4)CC1)c(C)n3CCC2 [Example 24, 8-Acetoxy-5,6-dihydro-2-methyl-1-{2-[4-(4-methyl-pyridin-2-yl)piperazin-1-yl]ethyl}-4H-pyrrolo[3,2,1-ij]quinoline]",60%,80%
"CC(C)=Cc1cc2c3c(c1)c(CCN1CCN(c4cc(C)ccn4)CC1)c(C)n3CCC2 [Example 26, 5,6-Dihydro-2-methyl-8-(2-methylprop-1-enyl)-1-{2-[4-(4-methylpyridin-2-yl)piperazin-1-yl]ethyl}-4H-pyrrolo[3,2,1-ij]quinoline]",90%,89%
Cc1ccnc(N2CCN(CCc3c(C)n4c5c(ccc(Cl)c35)OCC4)CC2)c1 [Example 35],58%,56%
"Cc1ccnc(N2CCN(CCc3c(C)n4c5c(cccc35)SCC4)CC2)c1 [Example 11, 5-Methyl-6-{2-[4-(4-methylpyridin-2-yl)piperazin-1-yl]ethyl}-2,3-dihydro-pyrrolo[1,2,3-de]-1,4-benzo-thiazine]",93%,89%
"Cc1ccnc(N2CCN(CCc3c(C)n4c5c(cccc35)CCC4)CC2)c1 [Example 1, 5,6-Dihydro-2-methyl-1-{2-[4-(4-methylpyridin-2-yl)piperazin-1-yl]ethyl}-4H-pyrrolo[3,2,1-ij]quinoline]",85%,97%
"Cc1ccnc(N2CCN(CCc3c(C)n4c5c(cc(Br)cc35)CCC4)CC2)c1 [Example 9, 8-Bromo-2-methyl-1-{2-[4-(4-methylpyridin-2-yl)piperazin-1-yl]ethyl}-5,6-dihydro-4H-pyrrolo[3,2,1-ij]quinoline]",80%,73%
CC(=O)c1cc2c3c(c1)c(CCN1CCN(c4cc(C)ccn4)CC1)c(C)n3CCC2 [Example 67],95%,76%
Cc1ccnc(N2CCN(CCc3c(C)n4c5c(ccc(C(=O)C(C)C)c35)SCC4)CC2)c1 [Example 91],87%,58%
Cc1ccnc(N2CCN(CCc3c(C)n4c5c(cccc35)CC4C)CC2)c1 (centres unmarked) [Example 33],93%,71%
"CCCCCCCC1CCc2cccc3c(CCN4CCN(c5cc(C)ccn5)CC4)c(C)n1c23 (centres unmarked) [Example 4, 4-n-heptyl-5,6-dihydro-2-methyl-1-{2-[4-(4-methylpyridin-2-yl)piperazin-1-yl]ethyl}-4H-pyrrolo[3,2,1-ij]-quinoline]",55%,58%
